Reference: patent US20220296613A1, “FOOD-INDEPENDENT DOSING OF CV-10155 TO TREAT GABAA DISORDERS” (priority 2021, published 2022)
Values joined by “and” are separate entries in the source; they are usually repeats but may differ in a detail not shown here. Equal values may be shown once. Read-outs that look alike come from different tables or passages of the source.

Columns and labels:
in vivo = settings: beagle, dog, iv, 1 mg/kg
[1] = not given; remark: listed apart in the source
clinical = settings: human, in vivo, 60 mg
[2] = Pharmacokinetics of CV-10155 solid dosage forms in fed or fasted beagle dogs; settings: for AUC(0-t): AUCLast; for MRT inf: MRTInf; for half-life: T½
α1β2γ2 GABAA receptors = α1β2γ2 GABAA receptors (Homo sapiens, UniProt P14867+P47870); experiment: Synchropatch electrophysiology, potentiation of synaptic GABAA receptors; type: cell-based
sleep states = experiment: Sleep states by electroencephalogram (EEG) in rats; type: in vivo
Procedure: The effect of CV-10155 on various sleep states was analyzed in rats. Rats were given various doses of CV-10155, and sleep states were analyzed by electroencephalogram (EEG).
FIG. 17 is a hypnogram showing the percentage of time spent in different sleep states by rats given drug vehicle. Purple bars represent REM sleep; green bars represent non-REM sleep; blue bars represent quiet waking; and red bars represent active waking.
FIG. 18 is a hypnogram showing the percentage of time spent in different sleep states by rats given 1 mg/kg CV-10155. Purple bars represent REM sleep; green bars represent non-REM sleep; blue bars represent quiet waking; and red bars represent active waking.
FIG. 19 is a hypnogram showing the percentage of time spent in different sleep states by rats given 3 mg/kg CV-10155. Purple bars represent REM sleep; green bars represent non-REM sleep; blue bars represent quiet waking; and red bars represent active waking.
FIG. 20 is a hypnogram showing the percentage of time spent in different sleep states by rats given 6 mg/kg CV-10155. Purple bars represent REM sleep; green bars represent non-REM sleep; blue bars represent quiet waking; and red bars represent active waking.
FIG. 21 is a hypnogram showing the percentage of time spent in different sleep states by rats given 10 mg/kg CV-10155. […]

α4β3δ GABAA receptors = α4β3δ GABAA receptors (Homo sapiens, UniProt P28472+P48169); experiment: Synchropatch electrophysiology, potentiation of extra synaptic GABAA receptors; type: cell-based
[3] = HV, 60 mg evening dosing (n = 12)
[4] = humans, 60 mg, day 7 MAD, morning dosing, fasted
[5] = humans, 60 mg, evening, fed state, N = 9
[6] = humans, 60 mg, morning, fasted state, N = 9
[7] = humans, evening, fed state, subject a, dosing day 1
[8] = humans, evening, fed state, subject l, dosing day 1
[9] = humans, evening, fed state, subject o, dosing day 3
[10] = humans, evening, fed state, subject p, dosing day 2
[11] = humans, evening, fed state, subject p, dosing day 7
[12] = humans, evening, fed state, subject p, dosing day 8
[13] = humans, evening, fed state, subject v, dosing day 4
[14] = HPMC-AS formulation, 10 mg PO, fed cohort, individual dogs
[15] = HPMC-AS formulation, 10 mg PO, fed cohort, mean of 4 dogs
[16] = HPMC-AS formulation, 10 mg PO, pentagastrin/fasted cohort, individual dogs
[17] = HPMC-AS formulation, 10 mg PO, pentagastrin/fasted cohort, mean of 4 dogs
[18] = HPMC-AS formulation, 30 mg PO, pentagastrin/fasted cohort, individual dogs
[19] = HPMC-AS formulation, 30 mg PO, pentagastrin/fasted cohort, mean of 4 dogs
[20] = male, beagle, dog, plasma, po, 10 mg, HPMC-AS formulation, 10 mg PO, fed cohort, mean of 4 dogs
[21] = male, beagle, dog, plasma, po, 10 mg, HPMC-AS formulation, 10 mg PO, pentagastrin/fasted cohort, mean of 4 dogs
[22] = male, beagle, dog, plasma, po, 10 mg, HPMC-AS formulation, 10 mg PO, fed cohort, individual dogs
[23] = male, beagle, dog, plasma, po, 30 mg, HPMC-AS formulation, 30 mg PO, pentagastrin/fasted cohort, mean of 4 dogs
[24] = male, beagle, dog, plasma, po, 30 mg, HPMC-AS formulation, 30 mg PO, pentagastrin/fasted cohort, individual dogs

Sequence of α1β2γ2 GABAA receptors (P14867 28-456): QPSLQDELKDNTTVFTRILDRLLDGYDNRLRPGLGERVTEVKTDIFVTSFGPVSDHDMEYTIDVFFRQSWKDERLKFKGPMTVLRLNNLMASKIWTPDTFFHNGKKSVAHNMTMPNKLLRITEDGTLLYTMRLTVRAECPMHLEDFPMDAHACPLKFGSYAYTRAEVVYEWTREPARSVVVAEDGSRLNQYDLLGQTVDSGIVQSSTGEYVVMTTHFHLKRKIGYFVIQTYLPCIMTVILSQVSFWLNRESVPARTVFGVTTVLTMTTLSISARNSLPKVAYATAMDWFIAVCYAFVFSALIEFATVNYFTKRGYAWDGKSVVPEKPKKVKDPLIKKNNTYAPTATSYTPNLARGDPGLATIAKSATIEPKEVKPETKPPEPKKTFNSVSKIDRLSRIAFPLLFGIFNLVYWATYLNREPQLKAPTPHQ
Sequence of α1β2γ2 GABAA receptors (P47870 25-512 limits assumed): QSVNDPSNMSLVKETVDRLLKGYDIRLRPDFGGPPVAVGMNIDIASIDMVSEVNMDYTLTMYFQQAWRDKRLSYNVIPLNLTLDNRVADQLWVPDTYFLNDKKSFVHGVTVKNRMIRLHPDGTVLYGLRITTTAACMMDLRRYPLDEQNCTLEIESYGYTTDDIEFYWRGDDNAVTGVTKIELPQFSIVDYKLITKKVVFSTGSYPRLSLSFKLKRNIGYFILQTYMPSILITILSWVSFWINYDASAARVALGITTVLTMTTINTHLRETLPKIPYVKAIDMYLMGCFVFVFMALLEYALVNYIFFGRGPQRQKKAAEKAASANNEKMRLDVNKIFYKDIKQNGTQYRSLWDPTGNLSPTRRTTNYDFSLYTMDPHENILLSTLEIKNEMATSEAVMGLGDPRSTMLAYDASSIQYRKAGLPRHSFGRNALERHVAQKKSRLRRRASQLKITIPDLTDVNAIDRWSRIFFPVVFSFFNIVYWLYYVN
Sequence of α1β2γ2 GABAA receptors (P18507 40-475 partner): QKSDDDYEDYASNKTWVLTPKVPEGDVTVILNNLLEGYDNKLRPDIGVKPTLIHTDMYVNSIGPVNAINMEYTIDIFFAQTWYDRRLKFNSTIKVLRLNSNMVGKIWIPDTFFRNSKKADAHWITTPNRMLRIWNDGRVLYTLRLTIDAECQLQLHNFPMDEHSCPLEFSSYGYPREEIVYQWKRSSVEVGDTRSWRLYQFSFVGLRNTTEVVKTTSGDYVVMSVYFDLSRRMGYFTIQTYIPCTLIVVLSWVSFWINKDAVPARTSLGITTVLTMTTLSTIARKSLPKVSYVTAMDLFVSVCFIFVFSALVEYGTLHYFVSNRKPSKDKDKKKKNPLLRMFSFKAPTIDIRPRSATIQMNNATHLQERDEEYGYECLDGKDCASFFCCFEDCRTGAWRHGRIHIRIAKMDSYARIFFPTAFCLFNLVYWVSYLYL
Sequence of α4β3δ GABAA receptors (P48169 36-554): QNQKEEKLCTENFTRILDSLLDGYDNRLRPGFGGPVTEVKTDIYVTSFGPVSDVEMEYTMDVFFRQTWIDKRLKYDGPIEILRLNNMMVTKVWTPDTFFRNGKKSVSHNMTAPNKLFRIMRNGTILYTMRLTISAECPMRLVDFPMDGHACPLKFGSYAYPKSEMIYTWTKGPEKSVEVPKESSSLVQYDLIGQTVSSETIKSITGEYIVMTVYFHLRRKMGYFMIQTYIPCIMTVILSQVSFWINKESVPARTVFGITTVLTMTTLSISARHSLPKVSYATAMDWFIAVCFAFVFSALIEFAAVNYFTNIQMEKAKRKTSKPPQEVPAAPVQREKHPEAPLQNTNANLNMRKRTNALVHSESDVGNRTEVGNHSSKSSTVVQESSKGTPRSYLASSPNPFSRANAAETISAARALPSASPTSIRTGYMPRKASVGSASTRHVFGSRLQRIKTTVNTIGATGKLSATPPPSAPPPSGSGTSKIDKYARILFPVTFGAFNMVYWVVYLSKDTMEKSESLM
Sequence of α4β3δ GABAA receptors (P28472 26-473): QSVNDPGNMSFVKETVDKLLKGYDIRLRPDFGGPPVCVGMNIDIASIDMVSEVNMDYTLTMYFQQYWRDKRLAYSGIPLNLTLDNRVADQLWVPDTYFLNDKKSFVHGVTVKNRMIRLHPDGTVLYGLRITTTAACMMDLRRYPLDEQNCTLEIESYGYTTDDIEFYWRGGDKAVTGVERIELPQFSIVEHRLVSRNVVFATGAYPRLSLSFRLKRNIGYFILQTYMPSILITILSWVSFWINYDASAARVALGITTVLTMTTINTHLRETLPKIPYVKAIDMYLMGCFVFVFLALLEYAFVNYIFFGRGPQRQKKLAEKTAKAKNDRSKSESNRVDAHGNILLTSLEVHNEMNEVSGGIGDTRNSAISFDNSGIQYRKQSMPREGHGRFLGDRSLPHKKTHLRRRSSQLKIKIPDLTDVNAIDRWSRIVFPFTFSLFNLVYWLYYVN
Sequence of α4β3δ GABAA receptors (O14764 25-452 partner): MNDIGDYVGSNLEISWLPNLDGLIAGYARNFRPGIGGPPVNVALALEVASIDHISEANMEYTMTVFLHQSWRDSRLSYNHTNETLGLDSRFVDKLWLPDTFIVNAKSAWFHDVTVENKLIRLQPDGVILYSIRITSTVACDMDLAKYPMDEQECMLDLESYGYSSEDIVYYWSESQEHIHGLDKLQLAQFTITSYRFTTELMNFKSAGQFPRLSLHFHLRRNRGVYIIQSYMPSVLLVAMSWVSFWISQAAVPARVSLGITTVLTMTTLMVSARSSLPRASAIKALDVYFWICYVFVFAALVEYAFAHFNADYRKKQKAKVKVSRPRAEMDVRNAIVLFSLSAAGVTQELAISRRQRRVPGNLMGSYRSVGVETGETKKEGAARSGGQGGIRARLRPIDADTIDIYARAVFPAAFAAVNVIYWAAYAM

C[C@@]1(O)CC[C@@]2(C)[C@@H](CC[C@@H]3[C@@H]2CC[C@]2(C)[C@@H](C(=O)Cn4cc(C#N)cn4)CC[C@@H]32)C1 [CV-10155, 1-[2-[(3R,5S,8R,9S,10S,13S,14S,17S)-3-hydroxy-3,10,13-trimethyl-1,2,4,5,6,7,8,9,11,12,14,15,16,17-tetradecahydrocyclopenta[a]phenanthren-17-yl]-2-oxoethyl]pyrazole-4-carbonitrile]
Vd (in vivo): 1.92 L/kg
clearance (in vivo): 2.17 mL/min/kg
half-life (in vivo): 13.9 h
dose proportionality of AUC and Cmax (human, in vivo, po): dose-proportional increase
MTD, single ascending dose (SAD) (humans): ETX-155 135 mg SAD MTD
dose-limiting adverse event (humans): Ataxia
effect of food consumption on absorption (humans, oral 30 mg, fed vs fasted): no clinically meaningful effect
adverse events observed (humans, single oral dose, 200 mg): ataxia, tremor and tachycardia
inter-subject variability (CV) of AUC and Cmax (humans, single oral dose, 5-200 mg dose range): ≤ 30%
dose-limiting adverse events (humans, single oral dose, range of 5-135 mg): No dose-limiting adverse events were observed
most common adverse events (humans, single oral dose, mild to moderate, only observed at the highest doses): Dizziness and somnolence
Dizziness, AEs % of subjects [1, 3]: 16.7%
Headache, AEs % of subjects [1, 3]: 8.3%
Somnolence, AEs % of subjects [1, 3]: 8.3%
Racc AUC ([1]; human, in vivo, 60 mg): 1.84
ratio of Cmax/trough on day 7 ([1]; humans, 60 mg daily in the evening in a fed state): 3.47
ratio of Cmax/trough on day 7 ([1]; humans, 60 mg daily in the morning in a fasted state): 6.09
tolerability profile compared to PRAX-114 and Sage-217 ([1]; humans, 60 mg dosed in the evening): favorable tolerability profile compared to PRAX-114 and one comparable to that of Sage-217
exposure levels in humans vs 30 mg doses of Sage-217 ([1]; humans, 60 mg doses): higher exposure levels
absorption, morning fasted vs evening fed ([1]; humans, 60 mg orally once per day for seven days): no significant difference in absorption
Cmin [1, 4]: 41.5 ng/mL
Ratio (Cmax/Cmin) [1, 4]: 6.07
AE Back pain (Musculoskeletal and connective tissue disorders), # [1, 5]: 1
AE Bloating (Gastrointestinal disorders), # [1, 5]: 1
AE Dizziness (Nervous system disorders), # [1, 5]: 1
AE Headache (Nervous system disorders), # [1, 5]: 2
AE Sleepiness (Nervous system disorders), # ([1]; humans, 60 mg, evening, fed state, N = 9, printed on two separate lines): 1
AE Dizziness (Nervous system disorders), # [1, 6]: 1
AE Feeling sleepy (Nervous system disorders), # [1, 6]: 1
AE Feeling tired (General disorders and administration site conditions), # [1, 6]: 2
AE Headache (Nervous system disorders), # [1, 6]: 2
AE Sleepiness (Nervous system disorders), # [1, 6]: 9
AE Tiredness (General disorders and administration site conditions), # [1, 6]: 3
Somnolence: duration [1, 7]: 10.62 h
Somnolence: severity [1, 7]: Mild
Headache: duration [1, 8]: 13.25 h
Headache: onset from dose [1, 8]: pre-dose
Headache: severity [1, 8]: Mild
Abdominal distension: duration [1, 9]: 06.50 h
Abdominal distension: severity [1, 9]: Mild
Dizziness: duration [1, 10]: 20.50 h
Dizziness: severity [1, 10]: Mild
Dizziness: duration [1, 11]: 13.00 h
Dizziness: severity [1, 11]: Mild
Headache: duration [1, 12]: 14.50 h
Headache: severity [1, 12]: Moderate
Back pain: duration [1, 13]: 39.25 h
Back pain: severity [1, 13]: Mild
adverse effects that interfere with sleeping ([1]; humans, oral administration in the evening to fed subjects): does not produce adverse effects that interfere with sleeping
AUC (clinical): 2900 ng·h/mL
Cmax (clinical): 253 ng/mL
Tmax (clinical): 3 h
half-life (clinical): 34.5 h
AUCExtr [2, 14]: 23.1% and 21.3% and 22.0% and 23.4%
AUCInf [2, 14]: 5047 ng·h/mL and 2440 ng·h/mL and 2105 ng·h/mL and 3712 ng·h/mL
AUCInf/D [2, 14]: 5602 kg·ng·h/mL/mg and 2929 kg·ng·h/mL/mg and 2273 kg·ng·h/mL/mg and 4084 kg·ng·h/mL/mg
AUCLast [2, 14]: 3882 ng·h/mL and 1919 ng·h/mL and 1641 ng·h/mL and 2845 ng·h/mL
Cmax [2, 14]: 512 ng/mL and 334 ng/mL and 273 ng/mL and 649 ng/mL
F [2, 14]: 71.6% and 38.3% and 29.4% and 52.0%
MRTInf [2, 14]: 14.8 h and 15.0 h and 15.5 h
T½ [2, 14]: 12.5 h and 12.2 h and 15.0 h
AUCExtr [2, 15]: 22.5%
AUCInf/D [2, 15]: 3722 kg·ng·h/mL/mg
F [2, 15]: 47.8%
AUCExtr [2, 16]: 20.4% and 14.1% and 47.1% and 17.9%
AUCInf [2, 16]: 2465 ng·h/mL and 2612 ng·h/mL
AUCInf/D [2, 16]: 2762 kg·ng·h/mL/mg and 2441 kg·ng·h/mL/mg and 3314 kg·ng·h/mL/mg and 2821 kg·ng·h/mL/mg
AUCLast [2, 16]: 2118 ng·h/mL and 1754 ng·h/mL and 2145 ng·h/mL
Cmax [2, 16]: 340 ng/mL and 183 ng/mL and 217 ng/mL
F [2, 16]: 36.5% and 34.8% and 29.1% and 38.5%
MRTInf [2, 16]: 14.8 h and 11.6 h and 33.6 h and 13.6 h
Tmax [2, 16]: 1 h
T½ [2, 16]: 11.1 h and 8.84 h and 25.7 h and 9.66 h
AUCExtr [2, 17]: 24.8%
AUCInf/D [2, 17]: 2834 kg·ng·h/mL/mg
F [2, 17]: 34.7%
AUCExtr [2, 18]: 30.3% and 27.1% and 19.4% and 24.4%
AUCInf [2, 18]: 12588 ng·h/mL and 8620 ng·h/mL and 4072 ng·h/mL and 7783 ng·h/mL
AUCInf/D [2, 18]: 4995 kg·ng·h/mL/mg and 3157 kg·ng·h/mL/mg and 1572 kg·ng·h/mL/mg and 2982 kg·ng·h/mL/mg
AUCLast [2, 18]: 8769 ng·h/mL and 6285 ng·h/mL and 3281 ng·h/mL and 5884 ng·h/mL
Cmax [2, 18]: 1440 ng/mL and 954 ng/mL and 302 ng/mL and 993 ng/mL
F [2, 18]: 57.8% and 38.3% and 21.1% and 37.5%
MRTInf [2, 18]: 18.1 h and 14.4 h and 16.2 h
T½ [2, 18]: 13.6 h and 9.98 h and 12.3 h
AUCExtr [2, 19]: 25.3%
AUCInf/D [2, 19]: 3177 kg·ng·h/mL/mg
F [2, 19]: 38.6%
AUC(0-inf) ([2]; male, beagle, dog, in vivo, po, 10 mg): 3310 ng·h/mL
AUC(0-inf) ([2]; male, beagle, dog, plasma, po, 10 mg, AUCInf, HPMC-AS formulation, 10 mg PO, fed cohort, mean of 4 dogs): 3330 ng·h/mL
AUC(0-inf) ([2]; male, beagle, dog, plasma, po, 10 mg, AUCInf, HPMC-AS formulation, 10 mg PO, pentagastrin/fasted cohort, individual dogs): 2630 ng·h/mL
AUC(0-inf) ([2]; male, beagle, dog, plasma, po, 10 mg, AUCInf, HPMC-AS formulation, 10 mg PO, pentagastrin/fasted cohort, mean of 4 dogs): 2760 ng·h/mL
AUC(0-t) [2, 20]: 2570 ng·h/mL
AUC(0-t) ([2]; male, beagle, dog, plasma, po, 10 mg, HPMC-AS formulation, 10 mg PO, pentagastrin/fasted cohort, individual dogs): 2090 ng·h/mL
AUC(0-t) [2, 21]: 2030 ng·h/mL
Cmax ([2]; male, beagle, dog, plasma, po, 10 mg, Cmax, HPMC-AS formulation, 10 mg PO, fed cohort, mean of 4 dogs): 442 ng/mL
Cmax ([2]; male, beagle, dog, plasma, po, 10 mg, Cmax, HPMC-AS formulation, 10 mg PO, pentagastrin/fasted cohort, individual dogs): 222 ng/mL
Cmax ([2]; male, beagle, dog, plasma, po, 10 mg, Cmax, HPMC-AS formulation, 10 mg PO, pentagastrin/fasted cohort, mean of 4 dogs): 241 ng/mL
MRT inf [2, 22]: 15.7 h
MRT inf [2, 20]: 15.3 h
MRT inf [2, 21]: 18.4 h
Tmax ([2]; male, beagle, dog, plasma, po, 10 mg, Tmax, HPMC-AS formulation, 10 mg PO, fed cohort, mean of 4 dogs): 1.13 h
Tmax ([2]; male, beagle, dog, plasma, po, 10 mg, Tmax, HPMC-AS formulation, 10 mg PO, pentagastrin/fasted cohort, individual dogs): 2 h
Tmax ([2]; male, beagle, dog, plasma, po, 10 mg, Tmax, HPMC-AS formulation, 10 mg PO, pentagastrin/fasted cohort, mean of 4 dogs): 1.5 h
half-life [2, 22]: 12.6 h
half-life [2, 20]: 13.1 h
half-life [2, 21]: 13.8 h
AUC(0-inf) ([2]; male, beagle, dog, plasma, po, 30 mg, AUCInf, HPMC-AS formulation, 30 mg PO, pentagastrin/fasted cohort, mean of 4 dogs): 8270 ng·h/mL
AUC(0-t) [2, 23]: 6060 ng·h/mL
Cmax ([2]; male, beagle, dog, plasma, po, 30 mg, Cmax, HPMC-AS formulation, 30 mg PO, pentagastrin/fasted cohort, mean of 4 dogs): 922 ng/mL
MRT inf [2, 24]: 20 h
MRT inf [2, 23]: 17.2 h
Tmax ([2]; male, beagle, dog, plasma, po, 30 mg, Tmax, HPMC-AS formulation, 30 mg PO, pentagastrin/fasted cohort, mean of 4 dogs): 1 h
half-life [2, 24]: 17.8 h
half-life [2, 23]: 13.4 h
EC50 (α1β2γ2 GABAA receptors): 207 nM
Emax (α1β2γ2 GABAA receptors; α1β2γ2 Synaptic receptors, Synchropatch electrophysiology, read-out: Emax - efficacy: % of potentiation): 586%
dose producing an increase in non-REM sleep (sleep states; EEG, 1, 3, 6, 10 mg/kg tested): ≥ 3 mg/kg
target engagement (EEG) (sleep states; within well-tolerated and efficacious dose ranges): dose-dependent target engagement
EC50 (α4β3δ GABAA receptors): 165 nM
fold higher efficiency at extra synaptic vs. synaptic channels (α4β3δ GABAA receptors; α4β3δ vs α1β2γ2): 3 fold
